Data taken from PubChem BioAssay (NCI).
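Cultured in 96-well plates, cells were exposed to test compound for 48 hours across five concentrations. GI50 is the concentration that inhibits growth by half. TGI is the concentration that stops growth completely.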

What follows are molecules tested on HCT-116 colon (assay: NCI anticancer screen, dose series, 48 h).
In the case of COc1ccc(C2c3cc4c(cc3OC(NNS(=O)(=O)c3ccc(C)cc3)C2C)OCO4)cc1 (centres undefined), the TGI was > 100 µM. CCC12C=CCN3CCC4(C(=C(C(=O)OC)[C@@H]1O)Nc1ccccc14)C32 (some centres undefined) gave a TGI of 2.95 µM. In the case of Oc1cc2c3c(c1)c1cc4c(cc1c[n+]3CC2)OCO4, the TGI was > 40.5 µM. With COc1nc(N)c(C(=O)CCl)c(=O)n1C the TGI was 31.3 µM. For [N-]=[N+]=Nc1cc(=O)oc2ccccc12, the TGI was > 100 µM. With CC(=O)NC1=C(NCCC(C)C)C(=O)c2ccccc2C1=O the TGI was > 50 µM. O=C([O-])CC(=O)[O-].O=C([O-])CC(=O)[O-].[K+].[Pd+2] was tested, and the GI50 was > 100 µM and the TGI was > 100 µM.

Each molecule was assayed on CCRF-CEM leukemia (assay: NCI anticancer screen, dose series, 48 h).
CC1C=C(CCCCCCCCCCCC[C@@H](O)[C@@H]2CC[C@@H]([C@@H]3CC[C@@H](C(O)CCCCCCCCCCCCC4=C[C@H](C)OC4=O)O3)O2)C(=O)O1 (some centres undefined) was tested, and the TGI was > 100 µM. COc1cc([C@@H]2OCC3C(c4ccc5c(c4)OCO5)OCC32)cc(OC)c1OC (some centres undefined) was tested, and the TGI was > 100 µM. In the case of N#CN=C(N(Cc1ccccc1)Cc1ccccc1)N(Cc1ccccc1)Cc1ccccc1, the TGI was > 100 µM. Molecule CCCNC1=C2CC(C)CC(OC)[C@@H](O)[C@H](C)/C=C(\C)C(OC(N)=O)C(OC)/C=C\C=C(/C)C(=O)NC(=CC1=O)C2=O (some centres undefined) has a GI50 of 0.309 µM and a TGI of 3.13 µM. For C[n+]1c2ccccc2c(/C=N\NS(=O)(=O)c2ccc(O)c(C(=O)O)c2)c2ccccc21, the TGI was > 100 µM. In the case of CC(=O)Nc1ccc(-c2nnc(SCC(=O)Nc3ccc([N+](=O)[O-])cc3)o2)cc1, the TGI was > 100 µM. For N.N.N.N.O=[N+]([O-])[O-].[Co+3].[N-]=[N+]=[N-].[N-]=[N+]=[N-], the TGI was > 100 µM. In the case of NC(=O)C(c1ccccc1)N1OC2C(=O)N(c3ccccc3)C(=O)C2C1c1c2ccccc2c(Cl)c2ccccc12 (centres undefined), the TGI was > 100 µM. In the case of COc1ccc(C2c3cc4c(cc3OC(NNS(=O)(=O)c3ccc(C)cc3)C2C)OCO4)cc1 (centres undefined), the TGI was > 100 µM. CCC12C=CCN3CCC4(C(=C(C(=O)OC)[C@@H]1O)Nc1ccccc14)C32 (some centres undefined) showed a TGI of 6 µM. Oc1cc2c3c(c1)c1cc4c(cc1c[n+]3CC2)OCO4 was tested, and the TGI was > 45.8 µM. With COc1nc(N)c(C(=O)CCl)c(=O)n1C the TGI was 79.8 µM. For [N-]=[N+]=Nc1cc(=O)oc2ccccc12, the TGI was > 100 µM. In the case of CC(=O)NC1=C(NCCC(C)C)C(=O)c2ccccc2C1=O, the TGI was > 50 µM.

What follows are molecules tested on 786-0 renal (assay: NCI anticancer screen, dose series, 48 h).
For CC1C=C(CCCCCCCCCCCC[C@@H](O)[C@@H]2CC[C@@H]([C@@H]3CC[C@@H](C(O)CCCCCCCCCCCCC4=C[C@H](C)OC4=O)O3)O2)C(=O)O1 (some centres undefined), the TGI was > 100 µM. With COc1cc([C@@H]2OCC3C(c4ccc5c(c4)OCO5)OCC32)cc(OC)c1OC (some centres undefined) the TGI was > 100 µM. With CCCNC1=C2CC(C)CC(OC)[C@@H](O)[C@H](C)/C=C(\C)C(OC(N)=O)C(OC)/C=C\C=C(/C)C(=O)NC(=CC1=O)C2=O (some centres undefined) the TGI was > 100 µM. For C[n+]1c2ccccc2c(/C=N\NS(=O)(=O)c2ccc(O)c(C(=O)O)c2)c2ccccc21, the TGI was > 100 µM. With CC(=O)Nc1ccc(-c2nnc(SCC(=O)Nc3ccc([N+](=O)[O-])cc3)o2)cc1 the TGI was 23.7 µM. N.N.N.N.O=[N+]([O-])[O-].[Co+3].[N-]=[N+]=[N-].[N-]=[N+]=[N-] was tested, and the TGI was > 100 µM. For NC(=O)C(c1ccccc1)N1OC2C(=O)N(c3ccccc3)C(=O)C2C1c1c2ccccc2c(Cl)c2ccccc12 (centres undefined), the TGI was > 100 µM. For CC[C@@]1(C[C@H]2C[C@@]3(C(=O)OC)c4[nH]c5ccccc5c4CCN3C2=O)COC2(CCCCC2)O1, the TGI was > 100 µM. COc1ccc(C2c3cc4c(cc3OC(NNS(=O)(=O)c3ccc(C)cc3)C2C)OCO4)cc1 (centres undefined) was tested, and the TGI was > 100 µM. For CCC12C=CCN3CCC4(C(=C(C(=O)OC)[C@@H]1O)Nc1ccccc14)C32 (some centres undefined), the TGI was 3.07 µM. Oc1cc2c3c(c1)c1cc4c(cc1c[n+]3CC2)OCO4 was tested, and the TGI was > 24.4 µM. In the case of [N-]=[N+]=Nc1cc(=O)oc2ccccc12, the TGI was > 100 µM. With CC(=O)NC1=C(NCCC(C)C)C(=O)c2ccccc2C1=O the TGI was > 50 µM.

What follows are molecules tested on SNB-19 CNS (assay: NCI anticancer screen, dose series, 48 h).
In the case of CC1C=C(CCCCCCCCCCCC[C@@H](O)[C@@H]2CC[C@@H]([C@@H]3CC[C@@H](C(O)CCCCCCCCCCCCC4=C[C@H](C)OC4=O)O3)O2)C(=O)O1 (some centres undefined), the TGI was > 100 µM. For COc1cc([C@@H]2OCC3C(c4ccc5c(c4)OCO5)OCC32)cc(OC)c1OC (some centres undefined), the TGI was > 100 µM. With N#CN=C(N(Cc1ccccc1)Cc1ccccc1)N(Cc1ccccc1)Cc1ccccc1 the TGI was > 100 µM. With CCCNC1=C2CC(C)CC(OC)[C@@H](O)[C@H](C)/C=C(\C)C(OC(N)=O)C(OC)/C=C\C=C(/C)C(=O)NC(=CC1=O)C2=O (some centres undefined) the TGI was > 100 µM. With C[n+]1c2ccccc2c(/C=N\NS(=O)(=O)c2ccc(O)c(C(=O)O)c2)c2ccccc21 the TGI was > 100 µM. In the case of N.N.N.N.O=[N+]([O-])[O-].[Co+3].[N-]=[N+]=[N-].[N-]=[N+]=[N-], the TGI was > 100 µM. In the case of NC(=O)C(c1ccccc1)N1OC2C(=O)N(c3ccccc3)C(=O)C2C1c1c2ccccc2c(Cl)c2ccccc12 (centres undefined), the TGI was > 100 µM. With CC[C@@]1(C[C@H]2C[C@@]3(C(=O)OC)c4[nH]c5ccccc5c4CCN3C2=O)COC2(CCCCC2)O1 the TGI was > 100 µM. With COc1ccc(C2c3cc4c(cc3OC(NNS(=O)(=O)c3ccc(C)cc3)C2C)OCO4)cc1 (centres undefined) the TGI was > 100 µM. In the case of CCC12C=CCN3CCC4(C(=C(C(=O)OC)[C@@H]1O)Nc1ccccc14)C32 (some centres undefined), the TGI was 3.8 µM. Oc1cc2c3c(c1)c1cc4c(cc1c[n+]3CC2)OCO4 showed a TGI of 10.2 µM. In the case of COc1nc(N)c(C(=O)CCl)c(=O)n1C, the TGI was 52 µM. With CC(=O)NC1=C(NCCC(C)C)C(=O)c2ccccc2C1=O the TGI was > 50 µM. In the case of O=C([O-])CC(=O)[O-].O=C([O-])CC(=O)[O-].[K+].[Pd+2], the GI50 was > 100 µM and the TGI was > 100 µM.

The molecules below were run on A498 renal (assay: NCI anticancer screen, dose series, 48 h).
CC1C=C(CCCCCCCCCCCC[C@@H](O)[C@@H]2CC[C@@H]([C@@H]3CC[C@@H](C(O)CCCCCCCCCCCCC4=C[C@H](C)OC4=O)O3)O2)C(=O)O1 (some centres undefined) was tested, and the TGI was > 100 µM. For COc1cc([C@@H]2OCC3C(c4ccc5c(c4)OCO5)OCC32)cc(OC)c1OC (some centres undefined), the TGI was > 100 µM. With N#CN=C(N(Cc1ccccc1)Cc1ccccc1)N(Cc1ccccc1)Cc1ccccc1 the TGI was > 100 µM. For CCCNC1=C2CC(C)CC(OC)[C@@H](O)[C@H](C)/C=C(\C)C(OC(N)=O)C(OC)/C=C\C=C(/C)C(=O)NC(=CC1=O)C2=O (some centres undefined), the TGI was 9.55 µM. In the case of C[n+]1c2ccccc2c(/C=N\NS(=O)(=O)c2ccc(O)c(C(=O)O)c2)c2ccccc21, the TGI was > 100 µM. In the case of N.N.N.N.O=[N+]([O-])[O-].[Co+3].[N-]=[N+]=[N-].[N-]=[N+]=[N-], the TGI was > 100 µM. With COc1ccc(C2c3cc4c(cc3OC(NNS(=O)(=O)c3ccc(C)cc3)C2C)OCO4)cc1 (centres undefined) the TGI was > 100 µM. In the case of CCC12C=CCN3CCC4(C(=C(C(=O)OC)[C@@H]1O)Nc1ccccc14)C32 (some centres undefined), the TGI was 5.28 µM. Oc1cc2c3c(c1)c1cc4c(cc1c[n+]3CC2)OCO4 was tested, and the TGI was > 74.7 µM. COc1nc(N)c(C(=O)CCl)c(=O)n1C gave a TGI of 32.4 µM.

What follows are molecules tested on LOX IMVI melanoma (assay: NCI anticancer screen, dose series, 48 h).
CC1C=C(CCCCCCCCCCCC[C@@H](O)[C@@H]2CC[C@@H]([C@@H]3CC[C@@H](C(O)CCCCCCCCCCCCC4=C[C@H](C)OC4=O)O3)O2)C(=O)O1 (some centres undefined) was tested, and the TGI was > 100 µM. With COc1cc([C@@H]2OCC3C(c4ccc5c(c4)OCO5)OCC32)cc(OC)c1OC (some centres undefined) the TGI was > 100 µM. In the case of N#CN=C(N(Cc1ccccc1)Cc1ccccc1)N(Cc1ccccc1)Cc1ccccc1, the TGI was > 100 µM. For CCCNC1=C2CC(C)CC(OC)[C@@H](O)[C@H](C)/C=C(\C)C(OC(N)=O)C(OC)/C=C\C=C(/C)C(=O)NC(=CC1=O)C2=O (some centres undefined), the GI50 was 0.0466 µM and the TGI was 0.614 µM. In the case of C[n+]1c2ccccc2c(/C=N\NS(=O)(=O)c2ccc(O)c(C(=O)O)c2)c2ccccc21, the TGI was > 100 µM. CC(=O)Nc1ccc(-c2nnc(SCC(=O)Nc3ccc([N+](=O)[O-])cc3)o2)cc1 was tested, and the TGI was 18.1 µM. In the case of N.N.N.N.O=[N+]([O-])[O-].[Co+3].[N-]=[N+]=[N-].[N-]=[N+]=[N-], the TGI was > 100 µM. For NC(=O)C(c1ccccc1)N1OC2C(=O)N(c3ccccc3)C(=O)C2C1c1c2ccccc2c(Cl)c2ccccc12 (centres undefined), the TGI was > 100 µM. In the case of CC[C@@]1(C[C@H]2C[C@@]3(C(=O)OC)c4[nH]c5ccccc5c4CCN3C2=O)COC2(CCCCC2)O1, the TGI was > 100 µM. In the case of COc1ccc(C2c3cc4c(cc3OC(NNS(=O)(=O)c3ccc(C)cc3)C2C)OCO4)cc1 (centres undefined), the TGI was > 100 µM. Molecule CCC12C=CCN3CCC4(C(=C(C(=O)OC)[C@@H]1O)Nc1ccccc14)C32 (some centres undefined) has a TGI of 3.26 µM. Molecule Oc1cc2c3c(c1)c1cc4c(cc1c[n+]3CC2)OCO4 has a TGI of 18.4 µM. COc1nc(N)c(C(=O)CCl)c(=O)n1C gave a TGI of 20.8 µM. With [N-]=[N+]=Nc1cc(=O)oc2ccccc12 the TGI was > 100 µM. For CC(=O)NC1=C(NCCC(C)C)C(=O)c2ccccc2C1=O, the TGI was > 50 µM. In the case of O=C([O-])CC(=O)[O-].O=C([O-])CC(=O)[O-].[K+].[Pd+2], the GI50 was > 100 µM and the TGI was > 100 µM.
